{"source": "paper PMC12169104", "about": "“Towards the development of supramolecular self-associating amphiphiles as antibiofilm agents against Pseudomonas aeruginosa and Candida albicans biofilms” (Journal of Materials Chemistry. B, 2025)", "key": {"[1]": {"assay": "Metabolic stability in liver microsomes", "assay_type": "in vitro ADME, rat", "method": "(§1) Section S5: In vitro and in vivo studies\n(§2) These studies were performed by Contract Research Organisation (CRO) Pharmaron. The methodology provided within the ESI is published within the express permission of this organisation.\n(§3) The percentage of a compound recovered during the analysis process should be 100 %; any deviation from this value indicates experimental limitations such as unintended potential non-specific binding events to experimental equipment, solubility issues, etc.\n(§4) In vitro Absorption, Distribution and Metabolism studies methods: […]\n(§5) The ionisation\n(§6) Kinetic Solubility Determination in PBS pH 7.4:\n(§7) The stock solutions of test and control compounds were prepared in DMSO at 10 mM. From this a 300 µM solution was prepared in duplicate in 100 mM Phosphate Buffered Saline (PBS, pH 7.4 ± 0.1). These solutions were then shaken at 1100rpm for 2 hours at 25°C. […]\n(§8) Metabolic Stability in Rat, Mouse and Human Liver Microsomes :\n(§9) The metabolic stability of compounds at a concentration of 1 µM, in rat, mouse and human liver microsomes (BD Gentest, Franklin Lakes NJ) was measured following incubation with hepatic microsomes (0.5 mg of protein / mL) in the presence and absence of cofa ctor (NADPH) at 37 °C.\n(§10) Aliquots of each incubation were removed at 0.5, 5, 15, 30 and 60 minutes. The reaction was stopped by the addition of cold acetonitrile containing analytical internal standard (IS). […]"}, "[2]": {"assay": "Bi-directional permeability in Caco-2 cell line", "assay_type": "in vitro ADME", "details": "human; for recovery at 2 h, 5 µM: Caco-2, pH 7.4, SSA recovered from the assay after 2 hours", "method": "Bi-directional Permeability in Caco-2 Cell Line:\nThe bi-directional permeability in Caco-2 cell lines was determined by seeding cells onto an HTS Transwell plate. Cells were cultivated for 14-18 days in a cell culture incubator at 37°C, 5% CO2, 95% relative humidity. Cell culture medium was replaced every other day. To assess monolayer integrity the transepithelial electrical resistance (TEER) across the monolayer was measured using Millicell Epithelial volt-ohm meter prior to assay and Lucifer yellow (LY) fluorescence measurement post- […]\nTest compound was prepared in DMSO and diluted in Hank’s Balanced Saline Solution (HBSS, pH 7.4) to a final concentration of 5 µM. Compound was added to the donor compartment of the transwell plate for both apical to basolateral (A>B) and basolateral to apical (B>A) measurements, with blank HBSS being added to the receiver compartment. The transwell plate was then incubated at 37°C, 5% […]\nSamples were shaken at T=0 and T=2 hours to determine the concentration of initial donor sample, and the concentration of receiver and donor wells post-incubation, respectively. The samples were quenched with solvent containing internal standard (IS). The supernatant was mixed with an appropriate volume of ultra-pure water before LC-MS/MS analysis. […]\ncoupled to a Sciex 5500+ (AB Inc., Illinois). Separation of compounds was achieved using an XSelect HSS T3 XP (2.5µm,2.1x50mm) (Waters Ltd., Wilmslow) column at a temperature of 40°C. A binary mobile phase gradient at a flow rate of 0.7 mL/min was used. Initial LC conditions comprised of 95% solvent A (0.1% formic acid in water) and 5% solvent B (0.1% formic acid in acetonitrile). This was ramped to 95% solvent B at 1.2 minutes, held for 0.4 minutes and then immediately returned to initial conditions. Sample analysis was by electrospray ionisation combined with multiple reaction monitoring in positive ion mode. The ionspray voltage was 5500V."}, "[3]": {"assay": "Metabolic stability in liver microsomes", "assay_type": "in vitro ADME, mouse", "method": "as §1, §2, §3, §4, §5, §6, §7, §8, §9, §10"}, "[4]": {"assay": "Metabolic stability in liver microsomes", "assay_type": "in vitro ADME, human", "method": "as §1, §2, §3, §4, §5, §6, §7, §8, §9, §10"}}, "note": "Read-outs that look alike come from different tables or passages of the source.", "data": [{"compound": "O=C(O)CNc1c(Nc2ccc(C(F)(F)F)cc2)c(=O)c1=O", "note": "[SSA 5]", "values": [{"measurement": "half-life at 1 µM", "setting": "[1]; liver microsomes, rat microsomes, 1 µM, read-out: In vitro T1/2", "result": "> 3.08", "unit": "h"}, {"measurement": "Hepatic Extraction Ratio (ER)", "setting": "[1]; rat", "result": "< 0.21"}, {"measurement": "efflux ratio at 2 h, 5 µM", "setting": "[2]; Caco-2, pH 7.4", "result": "> 73.9"}, {"measurement": "recovery at 2 h, 5 µM", "setting": "[2]; read-out: % Recovery (A-B)", "result": "< 98.4", "unit": "%"}, {"measurement": "recovery at 2 h, 5 µM", "setting": "[2]; read-out: % Recovery (B-A)", "result": 82.6, "unit": "%"}, {"measurement": "Papp A→B at 2 h, 5 µM", "setting": "[2]; Caco-2, pH 7.4, apical to basolateral, 5 µM, 2 hours", "result": "< 0.06", "unit": "×10⁻⁶ cm/s"}, {"measurement": "Papp B→A at 2 h, 5 µM", "setting": "[2]; Caco-2, pH 7.4, basolateral to apical, 5 µM, 2 hours", "result": 4.24, "unit": "×10⁻⁶ cm/s"}, {"measurement": "half-life at 1 µM", "setting": "[3]; liver microsomes, mouse microsomes, 1 µM, read-out: In vitro T1/2", "result": "> 3.08", "unit": "h"}, {"measurement": "Hepatic Extraction Ratio (ER)", "setting": "[3]; mouse", "result": "< 0.26"}, {"measurement": "Hepatic Extraction Ratio (ER)", "setting": "[4]; human", "result": "< 0.27"}, {"measurement": "half-life at 1 µM", "setting": "[4]; liver microsomes, human microsomes, 1 µM, read-out: In vitro T1/2", "result": "> 3.08", "unit": "h"}]}]}
